The results in this text go back to US7285564B2, “Substituted 4-amino-1-(pyridylmethyl)piperidine and related compounds” (Theravance, Inc., priority 2002, dated 2007).

The target in this experiment is T1, hM2 receptor (Homo sapiens, UniProt P08172).
T1 construct: expressed in transfected cells; membranes prepared
T1 sequence (P08172 1-466): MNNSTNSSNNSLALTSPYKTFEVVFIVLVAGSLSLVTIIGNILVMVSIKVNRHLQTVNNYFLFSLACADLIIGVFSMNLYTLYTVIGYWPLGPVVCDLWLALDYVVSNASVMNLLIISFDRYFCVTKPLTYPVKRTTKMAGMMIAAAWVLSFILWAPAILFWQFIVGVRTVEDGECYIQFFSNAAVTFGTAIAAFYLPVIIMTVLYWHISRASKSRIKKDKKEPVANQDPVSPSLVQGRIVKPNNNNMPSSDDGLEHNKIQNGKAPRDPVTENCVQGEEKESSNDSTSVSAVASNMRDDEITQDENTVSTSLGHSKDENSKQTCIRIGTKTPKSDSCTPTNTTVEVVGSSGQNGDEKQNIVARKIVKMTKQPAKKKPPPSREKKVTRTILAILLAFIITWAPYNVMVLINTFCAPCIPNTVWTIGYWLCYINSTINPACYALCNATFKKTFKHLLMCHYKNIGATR
Description: Blockade of agonist-mediated GTPγ[35S] binding. The following applies: membranes of CHO-K1 cells expressing hM2; read-out: Ki for blockade of carbachol-mediated GTPγ[35S] binding. It counts as biochemical. The protocol: In this assay, the functional potency of a test compound was determined by measuring the ability of the test compound to block carbachol-stimulated GTPγ[^35S] binding in CHO-K1 cells expressing the hM2 receptor.
CHO-K1 cells stably expressing the hM2 muscarinic receptor were grown in medium consisting of Hams F-12 media supplemented with 10% Fetal Bovine Serum and 500 μg/ml of Geneticin (G-418). Cells were incubated in a 5% CO2, humidified incubator at 37° C. Cells were grown to confluence and harvested with dPBS+2 mM EDTA and pelleted by centrifugation at 250×g for 10 minutes.
Cells from the centrifuged pellets were resuspended in homogenization buffer (10 mM HEPES, 10 mM EDTA, pH 7 at 4° C.). […]
To determine the ability of a test compound to inhibit carbachol-stimulated GTPγ[^35S] binding, the following was added to each well of 96 well plates: 25 μL of assay buffer with […] and GDP, 25 μL of diluted test compound (prepared as described above), and 25 μL CHO cell membranes expressing the hM2 receptor. […] After the pre-incubation period, 25 μL of carbachol at the final concentration of its EC90 value determined earlier in the day was added to each plate. […]
Test compound potency (IC50) was determined using iterative curve fitting (GraphPad Prism 3.0 software; single site competition curve). […]
Background: GTPγS is a poorly hydrolysed GTP analogue; its binding reports G protein activation.

The structures appear in SMILES notation. A value given as a limit tells only on which side of the number the result lay.

A word on the Ki: it is a measure of affinity in units of concentration, obtained from inhibition or displacement.

For the compound `COc1ccncc1CN1CCC(N(CCCCCCCN2CC[C@@H](C(C(N)=O)(c3ccccc3)c3ccccc3)C2)C(C)C)CC1` [Example 1], the Ki is less than 1 nM.
